Results taken from publication PMC6943441, “The Meta-Position of Phe^4 in Leu-Enkephalin Regulates Potency, Selectivity, Functional Activity, and Signaling Bias at the Delta and Mu Opioid Receptors” (Molecules, 2019).
Read-outs that look alike come from different tables or passages of the source. Square brackets hold non-standard residues; d marks the D form. Peptide text beside a SMILES is read from it. 2Pal = N[C@@H](Cc1ccccn1)C(=O)O; 3Pal = N[C@@H](Cc1cccnc1)C(=O)O

Experiments:
FLAG-mouse δOR = molecular target: T1, FLAG-mouse δOR (Mus musculus, UniProt P32300); assay: cAMP GloSensor inhibition assay in HEK 293 cells; assay type: cell-based; details: for cAMP δOR Efficacy (%+SD): relative to Leu-enkephalin = 100; for IC50: HEK 293, forskolin 30 µM; for LogR (δOR) cAMP: operational model Log R (τ/KA); for G Protein Selectivity (δOR vs µOR): cAMP potency δOR vs µOR
T1 construct: FLAG; expressed in transfected cells; host or cells: HEK 293
Description: (§2) In brief, for cAMP inhibition assays HEK 293 (Life Technologies, Grand Island, NY, USA) cells were transiently transfected in a 1:3 ratio with FLAG-mouse δOR, or HA-mouse µOR and pGloSensor22F-cAMP plasmids (Promega, Madison, WI, USA) using Xtremegene9 (Sigma). Two days post-transfection cells (20,000 cells/well, 7.5 µL) were seeded in low volume Greiner 384-well plates (#82051-458, VWR, Batavia, IL, USA) and were incubated with Glosensor reagent (Promega, 7.5 µL, 2% final concentration) for 90 min at room temperature. […] For β-arrestin recruitment assays, CHO-human µOR PathHunter β-arrestin 2 cells or CHO-human δOR PathHunter β-arrestin 2 cells (DiscoverX, Fremont, CA, USA) were plated (2,500 cells/well, 10 µL) one day prior to stimulation with 2.5 µL drug solution for 90 min at 37 °C/5% CO2, after which cells were incubated with 6 µL cell PathHunter assay buffer (DiscoverX) for 60 min at room temperature as per the manufacturer’s protocol. Luminescence for each of these assays was measured using a FlexStation3 plate reader (Molecular Devices, Sunnyvale, CA, USA).
(§3) All data are presented as means ± standard error of the mean, and analysis was performed using GraphPad Prism 8 software (GraphPad Software, La Jolla, CA). For in vitro assays, nonlinear regression was conducted to determine pIC50 (cAMP) or pEC50 (β-arrestin 2 recruitment). […] The averages of each independent run were counted as a single experiment and combined to provide a composite curve in favor of providing a ‘representative’ curve. In each experimental run, a positive control/reference compound was utilized to allow the data to be normalized and to calculate the log bias value. A minimum of three independent values were obtained for each compound in each of the cellular assays.

HA-mouse µOR = molecular target: T2, HA-mouse µOR (Mus musculus, UniProt P42866); assay: cAMP GloSensor inhibition assay in HEK 293 cells; assay type: cell-based; details: for cAMP µOR Efficacy (%+SD): relative to DAMGO = 100; for IC50: HEK 293, forskolin 30 µM; for LogR (µOR) cAMP: operational model Log R (τ/KA)
T2 construct: HA; expressed in transfected cells; host or cells: HEK 293
Description: as §2, §3

Rat plasma stability = details: for Degradation Products (First Appearance): rat plasma, UPLC-mass spectrometry, time of first appearance in parentheses; for half-life: rat, plasma
Description: Peptides were synthesized using an Aapptec Focus XC automated peptide synthesizer coupled with a heating system using a solid phase peptide synthesis protocol using Fmoc chemistry. Preparative RP-HPLC was performed using an appropriate column and solvent system (described below) and final purity of peptides was determined by UV area % from UPLC analysis. Peptides were purified by Teledyne ISCO EZ Prep system on RediSep® C18 Prep column (30 × 250 mm, 100 Å). […] Plasma stability was also assessed using the above UPLC column and solvent gradient program using a Waters H class Plus Acquity UPLC system coupled with a QDa detector using protocol B.
Sprague Dawley rat plasma containing K2-ethylenediaminetetraacetic acid (Innovative Research, MI, USA) was transferred into 300 µL aliquots and stored at −20 °C until use. […] After adding analog, an aliquot of the mixture was removed at each indicated time point (0, 5, 10, 15, 20, 30, 60, 120, 240 min) and immediately quenched with 100 μL of a methanol solution containing 20 μM Fmoc-Leu-OH as an internal standard. […] Then, the filtrate was transferred into vials and a 5 μL sample of the resulting solution was analyzed on an UPLC system coupled with a QDa detector. […] Determination of half-life (t1/2) was carried out by using the GraphPad Prism one-phase decay method.

µOR [1] = molecular target: T3, µOR (Homo sapiens, UniProt P35372); assay: Competition radioligand binding, [3H]DAMGO
Description: (§1) Next, 100 µL of membrane suspension containing 7 µg protein was added to the agonist wells and incubated for 90 min at room temperature. The reaction mixture was then filtered over a GF-B filter plate (Perkin Elmer) followed by four quick washes with ice-cold 50 mM Tris HCl. The plate was dried overnight, after which 50 µL scintillation fluid (Ultimagold uLLT) was added and radioactivity was counted on a Packard TopCount NXT scintillation counter. All working solutions were prepared in a radioligand assay buffer containing 50 mM Tris HCl, 10 mM MgCl2, and 1 mM ethylenediaminetetraacetic acid at pH 7.4.

µOR [2] = molecular target: T3, µOR; assay: Bias factor calculation (operational model, cAMP vs β-arrestin 2); details: DAMGO as reference, >1 = more G protein-biased
Description: Bias factors were calculated using the operational model equation in Prism 8 to calculate Log R (τ/KA) (Table S2) as previously described [12]. […] A bias factor > 1 meant that the agonist was more G protein-biased than the reference compound; A bias factor < 1 meant that the agonist was less G protein-biased than the reference compound.

µOR [3] = molecular target: T3, µOR; assay: cell-based; assay type: cell-based
Description: as §2, §3

δOR [4] = molecular target: T4, δOR (Homo sapiens, UniProt P41143); assay: Competition radioligand binding, [3H]DPDPE; details: for Binding Selectivity (δOR vs µOR): ratio of Ki values
Description: as §1

δOR [5] = molecular target: T4, δOR; assay: PathHunter β-arrestin 2 recruitment assay in CHO cells
Description: as §2, §3

[6] = CHO PathHunter, read-out: β-Arrestin 2 EC50 (nM) µOR

T4 sequence (P41143 whole entry): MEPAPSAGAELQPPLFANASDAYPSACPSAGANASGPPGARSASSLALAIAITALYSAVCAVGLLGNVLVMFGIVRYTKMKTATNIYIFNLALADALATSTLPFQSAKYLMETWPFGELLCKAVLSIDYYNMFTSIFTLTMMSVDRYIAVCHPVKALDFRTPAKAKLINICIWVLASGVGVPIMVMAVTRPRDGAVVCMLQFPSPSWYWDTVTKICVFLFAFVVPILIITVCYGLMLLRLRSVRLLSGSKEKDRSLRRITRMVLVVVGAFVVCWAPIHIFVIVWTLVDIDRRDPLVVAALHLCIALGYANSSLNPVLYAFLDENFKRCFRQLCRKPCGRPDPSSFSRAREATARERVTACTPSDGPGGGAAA
T1 sequence (P32300 whole entry): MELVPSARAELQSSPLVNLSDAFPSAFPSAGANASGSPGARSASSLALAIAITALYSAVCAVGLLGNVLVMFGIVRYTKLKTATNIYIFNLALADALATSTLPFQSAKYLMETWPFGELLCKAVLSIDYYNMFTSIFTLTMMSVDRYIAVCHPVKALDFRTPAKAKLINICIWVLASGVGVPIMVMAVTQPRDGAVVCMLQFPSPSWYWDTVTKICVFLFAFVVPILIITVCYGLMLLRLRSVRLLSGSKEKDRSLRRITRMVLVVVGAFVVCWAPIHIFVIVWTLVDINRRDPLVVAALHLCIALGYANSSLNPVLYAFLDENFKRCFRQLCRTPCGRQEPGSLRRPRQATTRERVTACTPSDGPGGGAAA
T3 sequence (P35372 whole entry): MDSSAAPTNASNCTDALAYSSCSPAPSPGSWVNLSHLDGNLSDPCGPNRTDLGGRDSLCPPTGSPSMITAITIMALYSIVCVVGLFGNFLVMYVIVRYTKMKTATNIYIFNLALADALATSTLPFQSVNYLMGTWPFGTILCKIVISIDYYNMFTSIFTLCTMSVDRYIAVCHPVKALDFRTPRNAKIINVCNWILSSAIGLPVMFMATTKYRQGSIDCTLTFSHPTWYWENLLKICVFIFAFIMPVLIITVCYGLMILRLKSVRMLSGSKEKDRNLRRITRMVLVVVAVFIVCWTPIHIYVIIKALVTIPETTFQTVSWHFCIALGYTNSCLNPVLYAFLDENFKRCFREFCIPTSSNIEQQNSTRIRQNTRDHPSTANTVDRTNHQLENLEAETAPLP
T2 sequence (P42866 whole entry): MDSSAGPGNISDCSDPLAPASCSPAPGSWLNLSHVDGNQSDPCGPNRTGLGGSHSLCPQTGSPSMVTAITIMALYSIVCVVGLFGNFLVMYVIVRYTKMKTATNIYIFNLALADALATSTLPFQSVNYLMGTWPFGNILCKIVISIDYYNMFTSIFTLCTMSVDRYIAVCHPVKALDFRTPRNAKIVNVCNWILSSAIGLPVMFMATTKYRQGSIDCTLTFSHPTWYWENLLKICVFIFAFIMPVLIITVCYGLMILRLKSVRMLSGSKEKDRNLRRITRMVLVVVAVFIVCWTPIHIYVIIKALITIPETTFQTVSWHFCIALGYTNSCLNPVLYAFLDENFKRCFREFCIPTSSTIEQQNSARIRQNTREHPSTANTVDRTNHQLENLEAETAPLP

Structure (SMILES) | cAMP δOR Efficacy (%+SD) (FLAG-mouse δOR) [%] | cAMP µOR Efficacy (%+SD) (HA-mouse µOR) [%] | Degradation Products (First Appearance) (Rat plasma stability) | Ki (µOR [1]) [nM] | IC50 (FLAG-mouse δOR; read-out: cAMP IC50 (nM) δOR) [nM] | LogR (δOR) cAMP (FLAG-mouse δOR) | EC50 (µOR [3]) [nM] | LogR (µOR) β-arr2 (µOR [3]) | β-Arrestin 2 µOR Efficacy (% + SEM) (µOR [3]) [%] | IC50 (HA-mouse µOR; read-out: cAMP IC50 (nM) µOR) [nM] | LogR (µOR) cAMP (HA-mouse µOR) | half-life (Rat plasma stability) [min] | Bias Factor µOR (DG = Ref) (µOR [2]) | further results
CC(C)C[C@H](NC(=O)[C@H](Cc1ccccc1)NC(=O)CNC(=O)CNC(=O)[C@@H](N)Cc1ccc(O)cc1)C(=O)O [Leu^5-enkephalin, Tyr^1-Gly^2-Gly^3-Phe^4-Leu^5, reference compound] | 100 | 100 | Gly-Gly-Phe-Leu (5 min) Phe-Leu (10 min) | – | – | – | – | – | – | – | – | – | – | cAMP µOR Efficacy (%+SD) (HA-mouse µOR; listed as Leu-enkephalin): 100 ± 9%
CC(C)C[C@H](NC(=O)[C@H](Cc1cccc([N+](=O)[O-])c1)NC(=O)CNC(=O)CNC(=O)[C@@H](N)Cc1ccc(O)cc1)C(=O)O [Compound 1i] | 99 ± 6 | – | Gly-Gly-(meta-NO2)Phe-Leu (5 min) (meta- NO2)Phe-Leu (20 min) | 0.98 | 0.47 | 9.0 | 537 | 5.3 | 60 ± 6 | 49 | 7.2 | 28.8 | – | Bias Factor µOR (DG = Ref) (µOR [2]; listed as 1i (NO2)): 11.1
CC(C)C[C@H](NC(=O)[C@H](Cc1cccc(C#N)c1)NC(=O)CNC(=O)CNC(=O)[C@@H](N)Cc1ccc(O)cc1)C(=O)O [Compound 1h] | 100 ± 3 | 92 ± 13 | Gly-Gly-(meta-CN)Phe-Leu (5 min) (meta-CN)Phe-Leu (20 min) | 0.3 | 0.35 | 9.3 | 158 | 5.9 | 68 ± 4 | 12 | 7.5 | 33 | 5.4 | –
COc1cccc(C[C@H](NC(=O)CNC(=O)CNC(=O)[C@@H](N)Cc2ccc(O)cc2)C(=O)N[C@@H](CC(C)C)C(=O)O)c1 [Compound 1f] | 98 ± 10 | 87 ± 5 | Gly-Gly-(meta-OMe)Phe-Leu (5 min) (meta-OMe)Phe-Leu (20 min) | – | 0.14 | 9.8 | 589 | 5.6 | 67 ± 3 | 8.12 | 7.4 | 46.1 | – | Bias Factor µOR (DG = Ref) (µOR [2]; listed as 1f (OMe)): 8.4
CC(C)C[C@H](NC(=O)[C@H](Cc1cccc(Cl)c1)NC(=O)CNC(=O)CNC(=O)[C@@H](N)Cc1ccc(O)cc1)C(=O)O [Compound 1b, H2N-Tyr-Gly-Gly-(meta-Cl)Phe-Leu-OH] | 94 ± 5 | 99 ± 7 | Gly-Gly-(meta-Cl)Phe-Leu (5 min) (meta-Cl)Phe-Leu (30 min) | – | 0.022 | 10.6 | 67.6 | 7.2 | 96 ± 8 | 30.2 | 7.5 | 37.8 | 0.3 | –
CC(C)C[C@H](NC(=O)[C@H](Cc1cccc(Br)c1)NC(=O)CNC(=O)CNC(=O)[C@@H](N)Cc1ccc(O)cc1)C(=O)O [Compound 1c, H2N-Tyr-Gly-Gly-(meta-Br)Phe-Leu-OH] | 96 ± 4 | 104 ± 11 | Gly-Gly-(meta-Br)Phe-Leu (5 min) (meta-Br)Phe-Leu (15 min) | 0.13 | 0.03 | 10.5 | 35.5 | 7.2 | 79 ± 6 | – | 8.1 | 21.5 | 1.2 | IC50 (HA-mouse µOR; read-out: cAMP pIC50 ± SEM (µOR) (converted)): 10 nM
CC(C)C[C@H](NC(=O)[C@H](Cc1ccccn1)NC(=O)CNC(=O)CNC(=O)[C@@H](N)Cc1ccc(O)cc1)C(=O)O [Compound 1j] (H-YGG[2Pal]L-OH; N-terminus and C-terminus assumed) | – | – | (2-pyridyl)Ala-Leu (5 min) Gly-Gly-(2-pyridyl)Ala-Leu (30 min) | 9.12 | 4.57 | – | – | – | – | 40.7 | – | 26.8 | – | Ki (δOR [4]): 6.17 nM; Binding Selectivity (δOR vs µOR) (δOR [4]): 1.5; EC50 (δOR [5]): 100 nM; G Protein Selectivity (δOR vs µOR) (FLAG-mouse δOR): 8.9; EC50 (µOR [3]; [6]): 1350 nM
Cc1cccc(C[C@H](NC(=O)CNC(=O)CNC(=O)[C@@H](N)Cc2ccc(O)cc2)C(=O)N[C@@H](CC(C)C)C(=O)O)c1 [Compound 1e] | 92 ± 8 | 85 ± 10 | Gly-Gly-(meta-Me)Phe-Leu (5 min) (meta-Me)Phe-Leu (20 min) | 0.14 | 0.039 | 10 | 186 | 6.1 | 71 ± 3 | 3.72 | 8.1 | 39.5 | 11.5 | –
CC(C)C[C@H](NC(=O)[C@H](Cc1cccc(I)c1)NC(=O)CNC(=O)CNC(=O)[C@@H](N)Cc1ccc(O)cc1)C(=O)O [Compound 1d] | 97 ± 4 | 94 ± 11 | Gly-Gly-(meta-I)Phe-Leu (5 min) (meta-I)Phe-Leu (15 min) | 0.14 | 0.025 | – | 46.8 | 6.6 | 70 ± 3 | 4.27 | 8.0 | 13.2 | 3.2 | –
C[C@@H](NC(=O)[C@@H](N)Cc1ccc(O)cc1)C(=O)NCC(=O)N(C)[C@@H](Cc1ccccc1)C(=O)NCCO [DAMGO, (D-Ala^2, N-MePhe^4, Gly-ol) enkephalin, reference compound] | – | 100 | – | – | – | – | – | – | – | – | 7.8 | – | 1 | β-Arrestin 2 µOR Efficacy (% + SEM) (µOR [3]; relative to DAMGO = 100%): 100%
CC(C)C[C@H](NC(=O)[C@H](Cc1cccc(F)c1)NC(=O)CNC(=O)CNC(=O)[C@@H](N)Cc1ccc(O)cc1)C(=O)O [Compound 1a, H2N-Tyr-Gly-Gly-(meta-F)Phe-Leu-OH] | 95 ± 6 | 98 ± 6 | Gly-Gly-(meta-F)Phe-Leu (5 min) (meta-F)Phe-Leu (60 min) | – | 0.39 | 9.4 | 575 | 5.8 | 75 ± 13 | – | 8.0 | 82.3 | 22.2 | IC50 (FLAG-mouse δOR; read-out: cAMP pIC50 ± SEM (δOR) (converted)): 0.339 nM
CC(C)C[C@H](NC(=O)[C@H](Cc1cccnc1)NC(=O)CNC(=O)CNC(=O)[C@@H](N)Cc1ccc(O)cc1)C(=O)O [Compound 1k] (H-YGG[3Pal]L-OH; N-terminus and C-terminus assumed) | – | – | (3-pyridyl)Ala-Leu (10 min) Gly-Gly-(3-pyridyl)Ala-Leu (20 min) | 158 | 47.9 | – | – | – | – | 234 | – | 54 | – | Ki (δOR [4]): 33.1 nM; Binding Selectivity (δOR vs µOR) (δOR [4]): 4.8; EC50 (δOR [5]): 1120 nM; G Protein Selectivity (δOR vs µOR) (FLAG-mouse δOR): 4.9; EC50 (µOR [3]; [6]): 41700 nM
CC(C)C[C@H](NC(=O)[C@H](Cc1cccc(C(F)(F)F)c1)NC(=O)CNC(=O)CNC(=O)[C@@H](N)Cc1ccc(O)cc1)C(=O)O [Compound 1g] | 92 ± 8 | 90 ± 4 | Gly-Gly-(meta-CF3)Phe-Leu (5 min) (meta- CF3)Phe-Leu (30 min) | – | 0.11 | 9.7 | 56.2 | 6.6 | 71 ± 3 | 2.45 | 8.1 | 44.5 | 4.3 | –
